“And” between values parts separate entries of the source, which are not always exact repeats. Equal values may be shown once.
System: 624824-186-R-J2-PDC multicell spheroids, viability
Test: Anticancer human tumor 624824-186-R-J2-PDC patient-derived colon adenocarcinoma cell line growth inhibition [PI3K]
Details: for viability, T/C: stronger effect = lower value
Method in brief: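 Viability of mixed-cell spheroids was determined after exposure to pairwise combinations, one partner being inavolisib, alpelisib, duvelisib or copanlisib. Highest tested concentration matched clinical Cmax where known and 10 microM where not, descending in half-log steps.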

[1] = curve of first compound, second compound 0.0316 µM
[2] = curve of first compound, second compound 0.1 µM
[3] = curve of first compound, second compound 0.316 µM
[4] = curve of first compound, second compound 1 µM
[5] = curve of first compound, second compound 3.16 µM
[6] = curve of first compound, second compound 10 µM
[7] = second compound 0.0316 µM, first compound 0.0316 µM
[8] = second compound 0.0316 µM, first compound 0.1 µM
[9] = second compound 0.0316 µM, first compound 0.316 µM
[10] = second compound 0.0316 µM, first compound 1 µM
[11] = second compound 0.0316 µM, first compound 3.16 µM
[12] = second compound 0.0316 µM, first compound 10 µM
[13] = second compound 0.1 µM, first compound 0.0316 µM
[14] = second compound 0.1 µM, first compound 0.1 µM
[15] = second compound 0.1 µM, first compound 0.316 µM
[16] = second compound 0.1 µM, first compound 1 µM
[17] = second compound 0.1 µM, first compound 3.16 µM
[18] = second compound 0.1 µM, first compound 10 µM
[19] = second compound 0.316 µM, first compound 0.0316 µM
[20] = second compound 0.316 µM, first compound 0.1 µM
[21] = second compound 0.316 µM, first compound 0.316 µM
[22] = second compound 0.316 µM, first compound 1 µM
[23] = second compound 0.316 µM, first compound 3.16 µM
[24] = second compound 0.316 µM, first compound 10 µM
[25] = second compound 1 µM, first compound 0.0316 µM
[26] = second compound 1 µM, first compound 0.1 µM
[27] = second compound 1 µM, first compound 0.316 µM
[28] = second compound 1 µM, first compound 1 µM
[29] = second compound 1 µM, first compound 3.16 µM
[30] = second compound 1 µM, first compound 10 µM
[31] = second compound 3.16 µM, first compound 0.0316 µM
[32] = second compound 3.16 µM, first compound 0.1 µM
[33] = second compound 3.16 µM, first compound 0.316 µM
[34] = second compound 3.16 µM, first compound 1 µM
[35] = second compound 3.16 µM, first compound 3.16 µM
[36] = second compound 3.16 µM, first compound 10 µM
[37] = second compound 10 µM, first compound 0.0316 µM
[38] = second compound 10 µM, first compound 0.1 µM
[39] = second compound 10 µM, first compound 0.316 µM
[40] = second compound 10 µM, first compound 1 µM
[41] = second compound 10 µM, first compound 3.16 µM
[42] = second compound 10 µM, first compound 10 µM
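Note: spheroids exposed to agents for 7 days before viability read.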
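Throughout, for viability, T/C: 100% = DMSO vehicle treated spheroids.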

## CC1(C)CCC(CN2CCN(c3ccc(C(=O)NS(=O)(=O)c4ccc(NCC5CCOCC5)c([N+](=O)[O-])c4)c(Oc4cnc5[nH]ccc5c4)c3)CC2)=C(c2ccc(Cl)cc2)C1
Compound 0.1 µM
  viability, T/C: 78.7% (2×) and 107% and 95.2%
Compound 0.316 µM
  viability, T/C: 80.4% [middle of 4 runs]
Compound 3.16 µM
  viability, T/C: 67% [middle of 4 runs]
Compound 10 µM
  viability, T/C: 72.2% [middle of 4 runs]
Curve of compound
  IC50: > 10 µM

## C=CC(=O)N1CCN(c2nc(=O)n(-c3c(C)ccnc3C(C)C)c3nc(-c4c(O)cccc4F)c(F)cc23)C(C)C1 (centres undefined) + Cc1nc(NC(=O)N2CCCC2C(N)=O)sc1-c1ccnc(C(C)(C)C(F)(F)F)c1
[1]
  IC50: > 10 µM
[2]
  IC50: > 10 µM
[3]
  IC50: > 10 µM
[4]
  IC50: > 10 µM
[5]
  IC50: > 10 µM
[6]
  IC50: > 10 µM
[7]
  viability, T/C: 98%
[8]
  viability, T/C: 71.2%
[9]
  viability, T/C: 101%
[10]
  viability, T/C: 101%
[11]
  viability, T/C: 92.8%
[12]
  viability, T/C: 100%
[13]
  viability, T/C: 91.9%
[14]
  viability, T/C: 107%
[15]
  viability, T/C: 105%
[16]
  viability, T/C: 80%
[17]
  viability, T/C: 93.9%
[18]
  viability, T/C: 101%
[19]
  viability, T/C: 112%
[20]
  viability, T/C: 87.8%
[21]
  viability, T/C: 91.2%
[22]
  viability, T/C: 79.9%
[23]
  viability, T/C: 90.8%
[24]
  viability, T/C: 87%
[25]
  viability, T/C: 86.2%
[26]
  viability, T/C: 79.5%
[27]
  viability, T/C: 70.4%
[28]
  viability, T/C: 84.9%
[29]
  viability, T/C: 85.2%
[30]
  viability, T/C: 67.5%
[31]
  viability, T/C: 86.8%
[32]
  viability, T/C: 88.1%
[33]
  viability, T/C: 92%
[34]
  viability, T/C: 83%
[35]
  viability, T/C: 82.6%
[36]
  viability, T/C: 93.9%
[37]
  viability, T/C: 79.2%
[38]
  viability, T/C: 86.5%
[39]
  viability, T/C: 79.5%
[40]
  viability, T/C: 91.5%
[41]
  viability, T/C: 84.1%
[42]
  viability, T/C: 77.2%

## C=CC(=O)N1CCN(c2nc(=O)n(-c3c(C)ccnc3C(C)C)c3nc(-c4c(O)cccc4F)c(F)cc23)C(C)C1 (centres undefined) + CC(Nc1ncnc2nc[nH]c12)c1cc2cccc(Cl)c2c(=O)n1-c1ccccc1
[1]
  IC50: > 10 µM
[2]
  IC50: > 10 µM
[3]
  IC50: > 10 µM
[4]
  IC50: > 10 µM
[5]
  IC50: > 10 µM
[6]
  IC50: > 10 µM
[7]
  viability, T/C: 77.6%
[8]
  viability, T/C: 82.8%
[9]
  viability, T/C: 100%
[10]
  viability, T/C: 85.2%
[11]
  viability, T/C: 75.2%
[12]
  viability, T/C: 77.9%
[13]
  viability, T/C: 95.2%
[14]
  viability, T/C: 77.9%
[15]
  viability, T/C: 82%
[16]
  viability, T/C: 93.6%
[17]
  viability, T/C: 78.1%
[18]
  viability, T/C: 90.2%
[19]
  viability, T/C: 104%
[20]
  viability, T/C: 94.2%
[21]
  viability, T/C: 79.4%
[22]
  viability, T/C: 88.7%
[23]
  viability, T/C: 83.8%
[24]
  viability, T/C: 72.8%
[25]
  viability, T/C: 106%
[26]
  viability, T/C: 80.7%
[27]
  viability, T/C: 84.8%
[28]
  viability, T/C: 84.4%
[29]
  viability, T/C: 77.3%
[30]
  viability, T/C: 70.6%
[31]
  viability, T/C: 97.6%
[32]
  viability, T/C: 96.6%
[33]
  viability, T/C: 77.5%
[34]
  viability, T/C: 90.4%
[35]
  viability, T/C: 85.5%
[36]
  viability, T/C: 81%
[37]
  viability, T/C: 116%
[38]
  viability, T/C: 98.7%
[39]
  viability, T/C: 109%
[40]
  viability, T/C: 99.2%
[41]
  viability, T/C: 92.3%
[42]
  viability, T/C: 83%

Source: PubChem BioAssay AID1963975 (Molecular Pharmacology Branch, DTP, NCI, 2024)
